Experimental findings from ChEMBL document CHEMBL4610121, “Rapid Elaboration of Fragments into Leads by X-ray Crystallographic Screening of Parallel Chemical Libraries (REFiLX)” (J Med Chem, 2020) are described below.

In brackets after ≈: the same amount, converted by molar mass. Bounds are passed on as bounds.

Data set [1] has as its target T1, Thiol:disulfide interchange protein DsbA (Escherichia coli (strain K12), UniProt P0AEG4).
T1 sequence (P0AEG4 whole entry): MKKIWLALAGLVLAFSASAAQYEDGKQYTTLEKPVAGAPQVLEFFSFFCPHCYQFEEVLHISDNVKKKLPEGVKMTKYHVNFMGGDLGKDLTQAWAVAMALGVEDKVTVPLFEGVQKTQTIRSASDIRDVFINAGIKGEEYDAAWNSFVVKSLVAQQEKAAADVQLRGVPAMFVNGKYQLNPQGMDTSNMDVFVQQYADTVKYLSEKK
Briefly: Binding affinity to uniformly labeled 15N oxidized Escherichia coli DsbA by 1H-15N HSQC NMR spectroscopy.

The nature of data set [2]: Solubility in PH 7.4 buffer by 1D 1H qNMR analysis. The data set is classed as physicochemical.

`Cc1cc(Oc2ccc(CC(=O)N3CCN(C)C(=O)C3)cc2)ccc1C#N`: the dissociation constant Kd (as a rule, the constant that tells how readily two partners part at equilibrium) in data set [1] stood at 480 µM. For the same compound, the concentration in solution in data set [2] (solubility) came to 1000 µM (≈ 363 µg/mL).

Turning to `Cc1cc(Oc2ccc(CC(=O)O)cc2)ccc1C#N`, the concentration in solution in data set [2] (solubility) was 1000 µM (≈ 267 µg/mL).

In turn, `CCN(CCn1cccn1)C(=O)Cc1ccc(Oc2ccc(C#N)c(C)c2)cc1` registered a dissociation constant (Kd) in data set [1] of 62 µM. In data set [2], the solubility (as a rule, the concentration that dissolves in the medium under given conditions) came out at 250 µM (≈ 97.1 µg/mL).

`CC(=O)N1CCN(C(=O)Cc2ccc(Oc3ccc(C#N)c(C)c3)cc2)CC1` displayed a Kd in data set [1] of 430 µM. Besides, the concentration in solution in data set [2] (solubility) was 1000 µM (≈ 377 µg/mL).

For `Cc1nc(CCN(C)C(=O)Cc2ccc(Oc3ccc(C#N)c(C)c3)cc2)no1`, the affinity in data set [1], expressed as Kd, was 230 µM. Also, the solubility in data set [2] is 500 µM (≈ 195 µg/mL).

Compound `N#Cc1ccc(Oc2ccc(O)cc2)cc1` gave a Kd in data set [1] greater than 1000 µM.

For `Cc1cc(Oc2ccc(CC(=O)N3CCOCC3)cc2)ccc1C#N`, in data set [1], the dissociation constant Kd came to 365 µM. The same compound gave a solubility in data set [2] of 500 µM (≈ 168 µg/mL).

On to `Cc1cc(Oc2ccc(CC(=O)NCCN3CCCN(C)CC3)cc2)ccc1C#N`, for which the affinity in data set [1], expressed as Kd, was 1100 µM. Also, in data set [2], the solubility is 1000 µM (≈ 407 µg/mL).

Regarding `Cc1cc(Oc2ccc(CC(=O)N3CCOCC3C(=O)O)cc2)ccc1C#N` (racemic), the Kd in data set [1] was 290 µM. Moreover, the concentration in solution in data set [2] (solubility) was 1000 µM (≈ 380 µg/mL).
